Converted amounts (≈) assume the structure as drawn. Like-named read-outs stand apart in the source and are kept apart here.
Experiments:
SW620 tumor organoids [1] = test: Western blot of treated SW620 tumor organoids; assay type: cell-based, human
Procedure: CRC cell lines and homogenized tumor tissue samples from mice were resuspended in RIPA lysis buffer (20 mM Tris-HCl (pH 7.5), 150 mM NaCl, 1 mM Na2EDTA, 1 mM EGTA, 1% NP-40, 1% sodium deoxycholate, 2.5 mM sodium pyrophosphate, 1 mM b-glycerophosphate, 1 mM Na3VO4, 0.1 mM PMSF. Protein concentration was determined using the Pierce™ BCA protein assay kit (ThermoFisher, Waltham, Mass.). Forty micrograms of sample were run on 10% Bis-Tris gels. Following electrophoresis, the proteins were transferred to a nitrocellulose membrane. The membranes were blocked at room temperature with 5% non-fat milk in TBS/Tween® 20 (TBST contains 20 mM Tris, 150 mM NaCl, and 0.1% Tween®20 (Croda International PLC, Snaith, UK) for 1 hour at room temperature. Membranes were washed three times with TBST. Blots were incubated with the appropriate primary antibody in 5% nonfat milk in TBST overnight at 4° C. Membranes were washed three times with TBST and then incubated with appropriate secondary antibody for one hour. Membranes were washed again with TBST three times. Blots were exposed using SuperSignal™West Pico PLUS Chemiluminescent Substrate (ThermoFisher, Waltham, Mass.) and imaged using a ChemiDoc imaging system (Bio-Rad, Hercules, Calif.). [See: Abbott et al., 2020 and its Supplementary Information for Western Blots]

[2] = tested on: CRC102 patient-derived tumor organoids; test: Patient tumor organoid cytotoxicity; assay type: cell-based; settings: Homo sapiens; single agent, Table 4A
Procedure: Patient Cell Tumor Organoid Culture. CRC048 and CRC102 patient cell samples were expanded and cultured as PDTOs using reported methodologies and reagents. (Drost et al., 2016; Sato et al., 2011) Briefly, patient cells were washed with PBS, digested with TrypLE, and filtered through 100 μm cell strainer before used in 3D cell culture. Patient cells were seeded at 5,000 cells per well in 96-well plates, coated with 2% Matrigel, and allowed to self-assemble as PDTOs over 72 h.
Tumor Organoid Cytotoxicity.

DLD1CHD1L-EV cells = test: DNA damage by γ-H2AX immunofluorescence; assay type: cell-based, human; settings: low CHD1L expressing cells
Procedure: (§1) DLD1^CHD1L-OE cells were seeded into a 96-well PerkinElmer Cell Carrier plate and allowed to adhere overnight. Cells were then treated with the appropriate compound at 10 μM (0.5% DMSO) or with CHD1L inhibitor in combination SN-38 (1 μM), oxaliplatin (10 μM), and etoposide (10 μM). Cells were treated for 6 h. Media was aspirated and cells were washed with cold PBS. Cells were then fixed with 3% paraformaldehyde for 15 min at room temperature, fixed cells were washed with PBS three times. Cells were blocked for 1 hour at room temperature in 5% BSA, 0.3% Triton X-100 in PBS. Cells were then immunostained with phospho-(S139)-g-H2AX rabbit mAb using a 1:800 dilution in 1% BSA, 0.3% Triton X-100 in PBS at 4° C. overnight. Primary antibody was aspirated and cells were washed with PBS. Cells were incubated for 2 h at room temperature with goat anti-rabbit Alexa Fluor Plus™ 647 fluorescent secondary antibody at a concentration of 5 μg/mL in 1% BSA, 0.3% Triton X-100 in PBS. Cells were then washed with PBS, Hoechst 33342 stain was diluted to a concentration of 1:1000 in PBS, and added to cells for 15 min at room temperature. Cells were then imaged using a 20× water objective on the Opera Phenix™ HCS imaging system (PerkinElmer). Synergy was determined using the coefficient of drug interaction (CDI) equation, CDI=(A+B)/(AB). Synergy was defined in these experiments with a CDI<0.8. Additivity was 0.8-1.2 and antagonism was defined by a CDI>1.2.
(§2) γ-H2AX DNA damage combination studies with irinotecan (SN38). CHD1L inhibitor 6 alone and in combination with SN38 was assessed for DNA damage as previously reported [Abbott et al., 2020; Abraham et al., 2019]. Using DLD1 colorectal cancer cells that have low CHD1L endogenous expression and DLD1 cells engineered to overexpress CHD1L, DNA damage studies were conducted measuring the immunofluorescence of γ-H2AX, a well-established biomarker of DNA damage [Ji et al., 2017; Ivashkevich et al., 2012]. […] Media was aspirated and cells were washed with cold PBS. Cells were then fixed with 3% paraformaldehyde for 15 min at room temperature and washed with PBS three times. Cells were blocked for 1 hour at room temperature in 5% BSA, 0.3% Triton X-100 in PBS. Cells were then immunostained with phospho-(S139)-γ-H2AX rabbit mAb using a 1:800 dilution in 1% BSA, 0.3% Triton X-100 in PBS at 4° C. overnight. Primary antibody was aspirated, and cells were washed with PBS. Cells were incubated for 2 hours at room temperature with goat anti-rabbit Alexa Fluor Plus™ 647 fluorescent secondary antibody at a concentration of 5 μg/mL in 1% BSA, 0.3% Triton X-100 in PBS. Cells were then washed with PBS; Hoechst 33342 stain was diluted to a concentration of 1:1000 in PBS and added to cells for 15 min at room temperature. Cells were then imaged using a 20× water objective on the PerkinElmer Phenix HCS imaging system. […] CDI=(A+B)/(AB), synergy was determined with a CDI<0.8, additivity was 0.8-1.2, and antagonism was defined by a CDI>1.2. Welch's t-test statistical analysis was used to determine significance, where **=P≤0.01.

DLD1CHD1L-OE cells = test: DNA damage by γ-H2AX immunofluorescence; assay type: cell-based, human; settings: 6 h; for DNA damage (γ-H2AX), combination with SN-38: compound 10 μM + SN-38 1 μM, vs SN-38 alone
Procedure: as §1, §2

SW620 tumor organoids [3] = test: Tumor organoid cytotoxicity (CellTiter-Glo 3D); settings: Homo sapiens
PDTO CRC102 = test: PDTO viability assay (CellTiter-Blue); assay type: cell-based; settings: Homo sapiens, 72 h, read-out: cytotoxicity EC50
Procedure: CRC patient tumor tissues were obtained from the UCCC GI tissue bank and expanded following established protocols. [Morin et al., 1997]. Briefly, cells were seeded at 5,000 cells per well in 96-well plates and cultured by established methods [Franken et al., 2006] allowing PDTO formation over 72 h. […] PDTO cell viability was measured using CellTiter-Blue® reagent (Promega, Madison, Wis.). Media (80 μL) was aspirated from wells and 80 μL of the reagent was added and incubated for 4 h and cell viability was measured by fluorescence intensity using excitation 560 excitation and 590 emission.

[4] = Aqueous solubility in PBS; assay type: physicochemical; settings: aqueous with cosolvent or surfactant or cyclodextrin; 10% DMSO in PBS (pH 7.4)
Procedure: The measurement of solubility in PBS was conducted in duplicate experiments. The consensus LogP (CLogP) values were obtained using the SwissADME web tools. [Daina et al., 2017]

[5] = SW-620, read-out: Tumor Organoid Cytotoxicity IC50 (μM) SW620

Row | SMILES | E-cadherin cleavage (marker of apoptosis) (SW620 tumor organoids [1]) | IC50 [2] [µM] | DNA damage (γ-H2AX), combination with SN38 (DLD1CHD1L-EV cells) | DNA damage (γ-H2AX), compound alone (DLD1CHD1L-EV cells) | DNA damage (γ-H2AX), combination with etoposide (DLD1CHD1L-EV cells; etoposide 10 μM) | DNA damage (γ-H2AX activity), compound alone (DLD1CHD1L-OE cells; 10 μM) | DNA damage (γ-H2AX), combination with SN-38 (DLD1CHD1L-OE cells) | DNA damage (γ-H2AX), combination with SN-38 (DLD1CHD1L-OE cells; listed as 6.0) | DNA damage (γ-H2AX), combination with etoposide (DLD1CHD1L-OE cells; compound 10 μM + etoposide 10 μM, vs etoposide alone) | DNA damage (γ-H2AX), combination with oxaliplatin (DLD1CHD1L-OE cells; compound 10 μM + oxaliplatin 10 μM) | IC50 (SW620 tumor organoids [3]; [5]) [µM] | EC50 (PDTO CRC102) [µM] | cleaved PARP1, cleaved caspase 8 and cleaved caspase 3 (SW620 tumor organoids [1]; relative to DMSO control) | solubility [4] [µg/mL] | IC50 (SW620 tumor organoids [3]; SW-620, 72 h, read-out: 3 D Cytotoxicity 72 hr IC50 (μM) SW620) [µM]
1 | COc1ccc(-c2nc(S(=O)(=O)c3ccccc3)c(S(C)(=O)=O)o2)cc1 [Compound 5] | E-cadherin is cleaved |  |  |  |  |  |  |  |  |  |  |  |  |  | 
2 | Cc1cc(Nc2ccc(NC(=O)Cc3cccs3)cc2)nc(N2CCCC2)n1 [Compound 6, N-(4-((6-methyl-2-(pyrrolidin-1-yl)pyrimidin-4-yl)amino)phenyl)-2-(thiophen-2-yl)acetamide] | E-cadherin is cleaved | 22.6 | nor does it synergize with SN38 | does not induce significant DNA damage | significant synergy | no significant DNA damage | synergized | synergy | synergized | no synergy | 4.6 | 11.6 ± 2 | increases in cleaved PARP1, cleaved caspase 8, and cleaved caspase 3 | 700 (≈ 1780 µM) | 
3 | Cc1cc(Nc2ccc(NC(=O)c3c[nH]c4ccccc34)cc2)nc(N2CCCC2)n1 [Compound 6.3, N-(4-((6-methyl-2-(pyrrolidin-1-yl)pyrimidin-4-yl)amino)phenyl)-1H-indole-3-carboxamide] |  |  |  |  |  |  |  |  |  |  | 3.8 |  |  |  | 3.6

From patent US20230103444A1 (The Regents of the University of Colorado, a Body Corporate, priority 2020, published 2023)
